The source of these data is patent US11135231B2, “Methods and compositions for prevention and treatment of Apicomplexan infections” (Tufts Medical Center, Inc., priority 2016, dated 2021).

The test system of one data set is HFF cell. Put plainly: HFF cell viability by MTS assay. It is filed as cell-based, human. To be noted: at the concentrations tested. The protocol:
(§1) Readouts of host cell viability were used to quantify the dose-response of tartrolon D/E against T. gondii. Human foreskin fibroblast (HFF) cells, after having been infected by T. gondii for 24 hours, were treated with dilutions of tartrolon D/E that have been purified as in Example 2, or DMSO (control) for 72 hours. Host cell viability was then measured by MTS assay (CellTiter 96® AQueous One Solution Cell Proliferation Assay, Promega). The effective concentration at which 50% of the host cells survived (EC50) was about 5 nM (FIG. 4A).
At the concentrations tested, tartrolon D/E had no effect on HFF cell viability as measured by MTS assay, indicating likely safety for in vivo administration. […] The aberration in the parasite morphology, stark when compared to untreated cell infection shown in the left columns of FIGS. 4B and 4C, provides direct evidence of irreversible inhibition and killing of the target parasite by compounds of the invention.
For orientation: Tetrazolium assays rely on reduction of a dye to a coloured formazan, in cell work by metabolically active cells.

A further data set concerns Caco2 cell. Put plainly: Caco2 cell viability. The format is cell-based. The following applies: concentrations up to 500 nM. The protocol: (§2) The effect of Tartrolon D/E on Cryptosporidium proliferation was evaluated by measuring host cell ATP levels (CellTiter-Glo® Luminescent Cell Viability Assay, Promega). Caco2 cells, having been infected with 2×10^5 C. parvum oocysts for 7 hours, were treated with dilutions of tartrolon D/E or DMSO (control) and cellular ATP levels were measured at the 48-hour time point post-infection.
(§3) The morphology of treated parasites (FIG. 6B) was similar to that seen with T. gondii, in which the vacuole contained intact nuclei but no intact merozoites.

For a further data set, the system named is T. gondii. Put plainly: MTS host cell viability readout of T. gondii-infected HFF cells. The format is cell-based. To be noted: Toxoplasma gondii, read-out: effective concentration at which 50% of the host cells survived (EC50). The protocol:
as §1

Data set [1] has as its system Bovine Turbinate (BT) cells (ATCC #CRL-1390). Put plainly: Toxicity for mammalian cells, CellTiter Glo cell viability assay. The format is cell-based. The following applies: 24 hours. As to the method:
Toxicity of the compounds of the invention for mammalian cells was determined. Bovine Turbinate (BT) cells (ATCC #CRL-1390) are a primary cell line (not a transformed cancer cell line) and were used to provide a preliminary evaluation of the toxicity of tartrolon D/E for mammalian cells. Briefly, BT cells were cultured in the presence of increasing starting concentrations of Tartrolon D/E for 24 hours. Cell proliferation was measured using CellTiter Glo Cell Viability Assay (Promega) and the data was analyzed with GraphPad Prism.

For another data set, the system named is Plasmodium berghei. Briefly: Plasmodium berghei-luciferase infection in mice, IVIS imaging. The format is in vivo. The following applies: IVIS image FIG. 14B, 1 of the 4 control mice. As to the method:
Mice were infected with Plasmodium berghei expressing luciferase. 48 hours post infection mice were treated with tartrolon D/E (specifically, D2) initially solubilized in 2% methylcellulose and 0.5% Tween80 by intraperitoneal injection for 5 days, once per day. Control mice were treated with vehicle alone. Seven days after infection, mice were given luciferase substrate (150 mg/kg D-luciferin Potassium salt in PBS (Goldbio)) and imaged in an IVIS Lumina II to quantify level of infection.

The subject of data set [2] is apicomplexan parasites tested. Put plainly: Summary of in vitro EC50 against the apicomplexan parasites tested. It is filed as cell-based. The following applies: general range. An excerpt: For therapeutic purposes, the compounds of the invention may be formulated into a pharmaceutical composition, by mixing a therapeutically effective amount of the compound(s) of the invention with a pharmaceutically acceptable excipient, carrier, or diluent, and optionally in combination with one or more additional active agents, e.g., a second anti-parasitic agent. […] With an EC50 value as low as the picomolar to nanomolar level provides further confidence that the active ingredients, once administered in vivo, would likely achieve the expected anti-parasitic effects. According to an aspect of the present invention, tartrolon D and/or tartrolon E can be used as a therapeutic for treatment or prevention of human and animal diseases caused by various protozoan parasites.

Another data set relates to Toxoplasma gondii. Put plainly: Immunofluorescence assay (anti-SAG1) of T. gondii-infected HFF cells. It is filed as cell-based. The following applies: T. gondii in HFF cells, FIG. 4B/4C. The protocol:
FIGS. 2B and 2C show results for experiments that were conducted as for FIG. 2A, except that 24 hours after addition of the fractions, the infected HFF cells were processed for immunofluorescence assays. Briefly, infected and treated HFF cells that had been grown on coverslips in 6-well plates were fixed with methanol and parasites were detected using antibody to the SAG1 T. gondii surface antigen that was then detected with a red-fluorescence tagged secondary antibody. Host nuclei were stained with blue fluorescent marker DAPI (4′,6-diamidino-2-phenylindole). Host nuclei were clearly visible (blue) in all cell populations in both FIGS. 2B and 2C. Consistent with the trypan blue results, extensive red fluorescence was visible in cells treated with the control (DMSO) in FIG. 2C, meaning these cells were highly infected with the parasites.

Another data set concerns Toxoplasma gondii ME49. Briefly: Bright-Glo luciferase assay of parasite proliferation in HFF cells. The format is cell-based. To be noted: Toxoplasma gondii, HFF, read-out: EC50 against T. gondii ME49, added 8 h after infection, 24 hours, 3 independent experiments. As to the method: Human foreskin fibroblast (HFF) cells were established in 96-well plates, and then infected with ME49 parasites engineered to express green fluorescent protein and firefly luciferase (2.5 to 5×10^5/well). Eight hours after infection, dilutions of Tartrolon D1 isolated as in Example 3, Tartrolon D2 isolated as in Example 4, or vehicle (DMSO) at equivalent concentrations were added to infected cells and the plates incubated for 24 hours (37° C., 5% CO2). Proliferation of the parasites was then measured using Bright-Glo luciferase assay system (available from Promega). Samples were run in triplicate and three independent biological replicates were conducted. The log 10 [Tartrolon D] versus percent inhibition of parasite proliferation was analyzed using the four parameter variable slope analysis in Graphpad Prism.

The subject of a further data set is Babesia bovis. Briefly: SYBR green-based growth suppression assay in bovine red blood cells. It is filed as cell-based. As to the method: Purified tartrolon D/E (with starting materials being either D1 or D2) was tested against another apicomplexan pathogen, Babesia bovis, which proliferates in bovine red blood cells. Growth suppression of B. bovis was quantified using a modified SybrGreen-based assay (Molecular Probes, Life Sciences Technology). SYBR green is an asymmetrical cyanine dye that is used as a nucleic acid stain. In this assay, parasite replication in red blood cells is measured directly by the incorporation of SYBR green into parasite DNA. Tartrolon D/E concentrations ranging from 0.001 to 10,000 nM were tested on infected cells and DMSO (vehicle) was run in parallel as a negative control.

Another data set relates to C. parvum. Put plainly: Neonatal mouse model of C. parvum infection, histological scoring. It is filed as in vivo, Cryptosporidium parvum. The following applies: neonatal mice, 2 mg/kg/dose b.i.d. for 4 days, histological score. As to the method: To determine if tartrolon D/E would be effective in vivo, the purified compound(s) of the invention was tested in a neonatal mouse model of C. parvum infection (Schaefer D A et al. (2000) Infect Immun 68(5):2608-261). Eight-day old neonatal mice were infected with C. parvum oocysts (50 times the ID50) and treated with purified tartrolon D/E (specifically, D1) or vehicle as a starting material for 4 days at 2 mg/kg/dose (b.i.d). At the end of the study period, mice were sacrificed and histological sections of jejunum, ileum, colon and caecum were examined. Infection in each section was scored by an observer blinded as to the sample identity.

Data set [3] deals with Cryptosporidium parvum. Briefly: Host cell ATP assay (CellTiter-Glo) of C. parvum-infected Caco2 cells. The format is cell-based. To be noted: Caco-2, host cell ATP at 48 h post-infection, read-out: EC50 against C. parvum. The protocol:
as §2

Data set [4] concerns three human tumor cell lines. To be noted: cited from earlier work.
Another data set concerns P. falciparum strains. Briefly: 3H hypoxanthine incorporation assay of P. falciparum strains in human red blood cells. It is filed as cell-based, Plasmodium falciparum. As to the method:
The potency of the compounds of the invention against multi-drug resistant P. falciparum strains was tested. Parasites were cultured in 96-well plates in human red blood cells at 0.5% initial parasitemia for 72 hours in the presence of dilutions of tartrolon D/E (specifically, D2 as the starting material in FIG. 11A), purified tartrolon E (FIG. 11C), dihydroartemisinin (DHA, as a positive control in FIG. 11B), or DMSO (as a negative control). Parasites proliferation was then determined by ^3H hypoxanthine incorporation.
Specifically, parasitized red blood cells (pRBCs) were grown in 0.5% Albumax I (Thermo Fisher Scientific). Assays were set up in 96-well plates at 0.5% initial parasitemia and 0.5% hematocrit. Parasites were exposed to various concentrations of Tartrolon D or E and dihydroartemisinin (DHA) for 48 hours and then pulsed with 0.5 microcuries of tritium-labeled hypoxanthine Moravek (MT-700) for another 24 hours. At the end of 72 hours, assay plates were processed through an Inotech cell harvester and collected on Inotech glass fiber filters. Filters were transferred to Omniplate-96 cassettes (Perkin Elmer) and dried overnight at room temperature. About […] of Microscint-O scintillation cocktail (Perkin Elmer) was added to each well. Each well was counted for 2 minutes on a Packard Topcount scintillation counter. The uptake of radiolabeled hypoxanthine by compound-treated pRBCs was compared relative to uptake by DMSO solvent-treated controls. […] The starting material used as the active reagent in FIG. 11C was tartrolon E, purified as follows: extract from the bacterial pellet of the Teredinibacter turnerae T7901 was purified by reversed phase HPLC using diode array detection. A C18 column (Phenomenex CHO-7878, 100×10 mm) was employed with an isocratic mobile phase (85% acetontrile in water, 3.5 mL/min) to yield tartrolon E (4.7 mg, retention time 8 min).

Data set [5] has as its system Cryptosporidium parvum. Briefly: Morphology of C. parvum parasites after treatment (immunofluorescence). The format is cell-based. The following applies: 100 nM, 9 hours (FIG. 6B).
Description: Insets (upper right in each image) are enlargements of boxed regions (dashes). Red: Rabbit α gp15 detected with Alexafluor 594-conjugated goat anti-rabbit IgG secondary antibody; blue: DAPI; scale=20 μm; insets=5 μm.
as §3

As to `C[C@@H]1C(=O)C[C@@H](O)CC/C=C/C=C\CC[C@H](C)OC(=O)C(O)[C@]2(O)O[C@@H](CC[C@H]2C)[C@H](C)C(=O)C[C@@H](O)CC/C=C/C=C\CC[C@H](C)OC(=O)C(O)[C@]2(O)O[C@H]1CC[C@H]2C` (stereo partly drawn) [Tartrolon D/E], in the data set with HFF cell, the “effect on HFF cell viability” value was “no effect”. Also, the “effect on Caco2 cell viability” value in the data set on Caco2 cell is “no effect”. Also, the EC50 with T. gondii is around 5 nM; in [2] it was 0.1 to 16 nM. Also, the “toxic dose at which 50% of the cells were killed” value in data set [1] is 1.14 µM. Also, the “treated mice with significant areas with no parasites” value with Plasmodium berghei is reported as 4 of the 5. Further, the parasite morphology entry in the data set with Toxoplasma gondii is “aberrant morphology”.

In the case of `C[C@@H]1C(=O)C[C@@H](O)CC/C=C/C=C\CC[C@H](C)OC(=O)C(O)[C@]2(O)O[C@@H](CC[C@H]2C)[C@H](C)C(=O)C[C@@H](O)CC/C=C/C=C\CC[C@H](C)OC(=O)C(O)[C@]2(O)O[C@H]1CC[C@H]2C` (stereo partly drawn) [Tartrolon D1, tartrolon D], the EC50 was determined as 3.4 nM in the data set on Toxoplasma gondii ME49 and 11.2 nM in the data set on Babesia bovis (Babesia bovis, Erythrocyte, SYBR green fluorescence, read-out: EC50 against B. bovis). Further, in the data set with Babesia bovis, the “concentration at which parasites did not incorporate any more fluorescence than uninfected red blood cells” value is on record as “more than 20 nM”. For the same molecule, in the data set with C. parvum, the inhibition of infection result is on record as “about 50%”.

For `C[C@@H]1C(=O)C[C@@H](O)CC/C=C/C=C\CC[C@H](C)OC(=O)C(O)[C@]2(O)O[C@@H](CC[C@H]2C)[C@H](C)C(=O)C[C@@H](O)CC/C=C/C=C\CC[C@H](C)OC(=O)C(O)[C@]2(O)O[C@H]1CC[C@H]2C` (stereo partly drawn) [Tartrolon D, tartrolon D], the EC50 was around 12 nM in the data set on Cryptosporidium parvum [3]; 0.11 nM with P. falciparum strains (Plasmodium falciparum, 3D7, Erythrocyte, parasite line 3D7); 0.28 nM in the data set on P. falciparum strains (Plasmodium falciparum, DD2, Erythrocyte, parasite line Dd2); 0.18 nM with P. falciparum strains (Plasmodium falciparum, Erythrocyte, parasite line 7G8); 0.26 nM in the data set on P. falciparum strains (Plasmodium falciparum, Erythrocyte, parasite line 2012 Indian Isolate (Goa)); 0.14 nM with P. falciparum strains (Plasmodium falciparum, Erythrocyte, parasite line D6). In addition, the EC50 turned out to be 0.31 nM in the data set with P. falciparum strains (Plasmodium falciparum, Erythrocyte, parasite line V1S); 0.13 nM with P. falciparum strains (Plasmodium falciparum, HB3, Erythrocyte, parasite line HB3); 0.2 nM in the data set on P. falciparum strains (Plasmodium falciparum, NF54, Erythrocyte, parasite line NF54); 0.16 nM with P. falciparum strains (Plasmodium falciparum, TM90C2A, Erythrocyte, parasite line TM90C2A); 0.19 nM in the data set on P. falciparum strains (parasite line 3D7). Also, the cytotoxic activity entry in data set [4] is “strong cytotoxic activity”. Also, the “morphology of treated parasites” value in the data set on Cryptosporidium parvum [5] is given as “most parasites did not progress past the single cell stage”.
